Measured values reported in patent publication US7615366B2, “Bacillus amyloliquefaciens KTGB0202 and control method of plant pathogenic fungi using that” (KT & G Co., Ltd., priority 2003, dated 2009).

Columns and labels:
[1] = system: melon powdery mildew; assay: Control effect against melon powdery mildew; details: 4000-fold-diluted concentration (control chemicals)
Text: The bacteria culture was spread to melons with a powdery mildew incidence of about 10% under greenhouse conditions three times at one-week intervals, and after 7 days, the results were examined.
Trifumin® and Fenari® (Fenarimol) were used at a 4000-fold-diluted concentration, a recommended concentration for farmhouses.
The number of leaves with melon powdery mildew was counted before and after treatment so as to yield therapeutic effects.

[2] = system: cucumber powdery mildew; assay: Control effect against cucumber powdery mildew; details: 4000-fold-diluted concentration (control chemical)
Text: Also, Trifumin® (Triflumizole) was used at a 4000-fold-diluted concentration, a recommended concentration for farmhouses.

SMILES | Number of infected leaves before treatment/number of infected leaves after treatment [1] | Therapeutic effect [1] | Control effect (%) [2] [%] | Incidence (%) [2] [%]
CCCOC/C(=N\c1ccc(Cl)cc1C(F)(F)F)n1ccnc1 [Trifumin ® (Triflumizole), Triflumizole] | 10/0 | 100 | 96.59 | 3.41
OC(c1ccc(Cl)cc1)(c1cncnc1)c1ccccc1Cl (stereo not drawn) [Fenari ® (Fenarimol), Fenarimol] | 9/6 | 33.4 | – | –
